Results: patent US20260049076A1, “Tertiary Amine Substituted Bicyclic Compounds Useful as T Cell Activators” (BRISTOL-MYERS SQUIBB COMPANY, priority 2022, published 2026)

Tests used:
[1] = molecular target: DGKzeta (Homo sapiens, UniProt Q13574); test: Translocation DGKzeta; type: cell-based
[2] = molecular target: T1, human DGKζ (Homo sapiens, UniProt Q13574); test: In vitro DGK inhibition assay, DGKζ liposome (LIPGLO) assay; type: biochemical; conditions: read-out: Enzyme Inhibition DGKzeta IC50
T1 construct: TVMV protease cleavage site (C); Hexa-His (C); made in house; host or cells: Sf9 insect cells (baculovirus)
Summary of the method: (§1)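 Baculovirus/Sf9-expressed His-tagged human DGKα or DGKζ (5 nM) on extruded liposomes (2 mM PS, 0.25 mM DAG, 2.75 mM PC) in MOPS pH 7.5 with MgCl2, CaCl2 and 150 μM ATP, 1 h.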

[3] = molecular target: T2, human DGKα (Homo sapiens, UniProt P23743); test: In vitro DGK inhibition assay, DGKα liposome (LIPGLO) assay; type: biochemical; conditions: read-out: Enzyme Inhibition DGKalpha IC50
T2 construct: TVMV protease cleavage site (C); Hexa-His (C); made in house; host or cells: Sf9 insect cells (baculovirus)
Summary of the method: as §1

[4] = molecular target: DGKalpha (Homo sapiens, UniProt P23743); test: Translocation DGKalpha; type: cell-based
Sequence of DGKalpha (P23743 whole entry): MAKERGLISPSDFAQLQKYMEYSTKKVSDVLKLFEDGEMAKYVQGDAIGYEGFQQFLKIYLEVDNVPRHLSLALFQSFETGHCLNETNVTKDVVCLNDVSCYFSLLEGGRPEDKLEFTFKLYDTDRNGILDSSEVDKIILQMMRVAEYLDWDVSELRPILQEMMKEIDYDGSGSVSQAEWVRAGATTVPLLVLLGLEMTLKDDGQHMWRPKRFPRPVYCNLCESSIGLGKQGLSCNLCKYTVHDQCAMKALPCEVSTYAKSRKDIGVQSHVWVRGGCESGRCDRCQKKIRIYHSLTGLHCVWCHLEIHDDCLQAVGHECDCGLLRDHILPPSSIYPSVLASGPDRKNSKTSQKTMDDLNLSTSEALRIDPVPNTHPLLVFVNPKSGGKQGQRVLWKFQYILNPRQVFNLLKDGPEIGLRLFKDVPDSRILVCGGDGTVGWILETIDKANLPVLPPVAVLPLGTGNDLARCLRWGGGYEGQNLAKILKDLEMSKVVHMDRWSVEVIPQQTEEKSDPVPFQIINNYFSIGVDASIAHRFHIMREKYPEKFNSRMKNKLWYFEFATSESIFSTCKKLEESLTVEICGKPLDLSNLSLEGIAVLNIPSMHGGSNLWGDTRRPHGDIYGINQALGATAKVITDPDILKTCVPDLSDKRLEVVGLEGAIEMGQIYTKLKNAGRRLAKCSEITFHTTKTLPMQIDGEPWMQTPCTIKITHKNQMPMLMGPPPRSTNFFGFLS

Sequence of DGKzeta (Q13574 whole entry): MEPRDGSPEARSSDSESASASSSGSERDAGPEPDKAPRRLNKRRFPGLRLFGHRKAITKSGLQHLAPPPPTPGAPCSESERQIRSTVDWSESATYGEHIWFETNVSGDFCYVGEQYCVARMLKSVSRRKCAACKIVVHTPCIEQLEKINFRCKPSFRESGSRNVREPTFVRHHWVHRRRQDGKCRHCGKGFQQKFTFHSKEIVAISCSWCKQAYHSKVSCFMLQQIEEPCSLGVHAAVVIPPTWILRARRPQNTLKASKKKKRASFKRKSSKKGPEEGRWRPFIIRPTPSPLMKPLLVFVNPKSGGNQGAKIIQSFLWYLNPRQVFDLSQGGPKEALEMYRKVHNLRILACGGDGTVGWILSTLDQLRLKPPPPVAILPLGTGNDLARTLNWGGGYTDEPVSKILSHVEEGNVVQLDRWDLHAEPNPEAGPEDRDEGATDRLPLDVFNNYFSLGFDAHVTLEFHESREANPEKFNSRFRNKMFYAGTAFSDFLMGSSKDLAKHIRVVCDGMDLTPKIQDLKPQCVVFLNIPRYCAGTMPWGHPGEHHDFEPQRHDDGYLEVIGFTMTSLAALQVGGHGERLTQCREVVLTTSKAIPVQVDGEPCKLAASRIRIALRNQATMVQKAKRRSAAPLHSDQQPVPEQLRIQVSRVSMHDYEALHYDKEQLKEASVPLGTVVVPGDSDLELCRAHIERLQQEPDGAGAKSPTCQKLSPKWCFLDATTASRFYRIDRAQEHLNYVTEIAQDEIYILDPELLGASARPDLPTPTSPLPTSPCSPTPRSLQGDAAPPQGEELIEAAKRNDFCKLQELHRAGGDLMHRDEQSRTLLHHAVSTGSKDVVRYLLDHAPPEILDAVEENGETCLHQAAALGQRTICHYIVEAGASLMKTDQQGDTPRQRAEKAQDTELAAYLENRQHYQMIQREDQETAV
T1 sequence (Q13574 with tags, fused parts or gaps isoform Q13574-4): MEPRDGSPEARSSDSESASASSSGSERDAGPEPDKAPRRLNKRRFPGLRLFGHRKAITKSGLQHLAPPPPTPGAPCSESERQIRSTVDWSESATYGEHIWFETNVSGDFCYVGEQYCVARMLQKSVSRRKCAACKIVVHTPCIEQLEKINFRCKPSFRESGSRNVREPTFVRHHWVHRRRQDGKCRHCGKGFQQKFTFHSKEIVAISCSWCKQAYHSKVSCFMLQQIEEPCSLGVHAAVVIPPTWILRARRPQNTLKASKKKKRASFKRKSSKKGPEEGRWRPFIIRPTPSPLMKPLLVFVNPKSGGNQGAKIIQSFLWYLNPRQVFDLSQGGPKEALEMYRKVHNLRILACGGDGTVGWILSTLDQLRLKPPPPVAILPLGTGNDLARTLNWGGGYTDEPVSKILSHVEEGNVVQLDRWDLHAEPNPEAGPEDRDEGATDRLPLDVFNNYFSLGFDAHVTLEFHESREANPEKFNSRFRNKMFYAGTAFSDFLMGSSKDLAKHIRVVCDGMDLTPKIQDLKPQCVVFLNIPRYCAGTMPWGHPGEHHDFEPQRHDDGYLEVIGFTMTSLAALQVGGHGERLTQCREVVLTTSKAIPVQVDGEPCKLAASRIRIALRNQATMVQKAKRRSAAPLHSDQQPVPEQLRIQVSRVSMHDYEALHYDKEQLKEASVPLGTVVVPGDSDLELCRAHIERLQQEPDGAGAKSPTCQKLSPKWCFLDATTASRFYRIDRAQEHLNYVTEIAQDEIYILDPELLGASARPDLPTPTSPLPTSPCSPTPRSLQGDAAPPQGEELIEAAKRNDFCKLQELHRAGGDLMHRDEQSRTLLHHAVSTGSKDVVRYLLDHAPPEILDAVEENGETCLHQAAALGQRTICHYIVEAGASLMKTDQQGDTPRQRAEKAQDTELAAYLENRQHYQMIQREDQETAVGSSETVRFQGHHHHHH
T2 sequence (P23743 with tags, fused parts or gaps): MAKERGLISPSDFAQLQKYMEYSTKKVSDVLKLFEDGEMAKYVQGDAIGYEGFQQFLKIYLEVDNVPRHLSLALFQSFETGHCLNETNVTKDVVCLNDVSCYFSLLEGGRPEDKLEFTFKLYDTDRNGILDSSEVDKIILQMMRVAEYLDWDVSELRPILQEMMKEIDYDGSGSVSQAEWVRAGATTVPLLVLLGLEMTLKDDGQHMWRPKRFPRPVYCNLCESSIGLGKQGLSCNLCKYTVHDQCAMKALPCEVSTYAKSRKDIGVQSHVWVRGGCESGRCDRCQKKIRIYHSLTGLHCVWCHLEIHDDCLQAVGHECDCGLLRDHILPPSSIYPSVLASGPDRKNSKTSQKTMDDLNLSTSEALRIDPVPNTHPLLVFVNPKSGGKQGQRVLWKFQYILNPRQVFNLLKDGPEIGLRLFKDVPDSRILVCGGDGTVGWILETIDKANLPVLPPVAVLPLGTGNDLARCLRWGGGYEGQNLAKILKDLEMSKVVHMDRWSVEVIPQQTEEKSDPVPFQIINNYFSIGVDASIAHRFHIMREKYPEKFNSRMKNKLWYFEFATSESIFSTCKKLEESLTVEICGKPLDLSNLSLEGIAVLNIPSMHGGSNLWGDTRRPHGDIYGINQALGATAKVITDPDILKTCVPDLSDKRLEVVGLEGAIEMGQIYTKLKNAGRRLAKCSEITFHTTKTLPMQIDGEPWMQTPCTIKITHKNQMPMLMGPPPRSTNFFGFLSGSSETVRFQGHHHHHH

SMILES | EC50 [1] [nM] | IC50 [2] [nM] | IC50 [3] [nM] | EC50 [4] [nM]
Cn1c(=O)cc(N(CC2CC2)c2ccc(C3CC3)c(-c3ccc(C(N)=O)cc3)c2)c2nc(C#N)ccc21 [Example 130, 5′-((6-cyano-1-methyl-2-oxo-1,2-dihydro-1,5-naphthyridin-4-yl)(cyclopropylmethyl)amino)-2′-cyclopropyl-[1,1′-biphenyl]-4-carboxamide] | 160 | > 38000 | > 38000 | > 3000
Cn1c(=O)cc(N(CC2CC2)c2ccc(C3CC3)c(-c3cccc(F)c3)c2)c2nc(C#N)ccc21 [Example 126, 8-((6-cyclopropyl-3′-fluoro-[, 1′-biphenyl]-3-yl) (cyclopropylmethyl)amino)-5-methyl-6-oxo-5,6-dihydro-1,5-naphthyridine-2-carbonitrile] | 85 | 17000 | > 38000 | > 3000
Cn1c(=O)cc(N(CC2CC2)c2ccc(Br)cc2)c2nc(C#N)ccc21 [Example 18, 8-[(4-bromophenyl)(cyclopropylmethyl)amino]-5-methyl-6-oxo-5,6-dihydro-1,5-naphthyridine-2-carbonitrile] | 5000 | 230 | 260 | 2700
Cn1c(=O)cc(N(CC2CC2)c2ccc(C3CC3)c(-c3ccccc3)c2)c2nc(C#N)ccc21 [Example 122, 8-((6-cyclopropyl-[1,1′-biphenyl]-3-yl)(cyclopropylmethyl)amino)-5-methyl-6-oxo-5,6-dihydro-1,5-naphthyridine-2-carbonitrile] | 170 | 22000 | 19000 | > 3000
Cn1c(=O)cc(N(CC2CC2)c2ccc(OC(F)F)cn2)c2nc(C#N)ccc21 [Example 123] | 640 | 1200 | 24000 | > 3000
Cc1cc(C2CC2)ccc1N(CC1CC1)c1cc(=O)n(C)c2ccc(C#N)nc12 [Example 113, 8-((4-cyclopropyl-2-methylphenyl) (cyclopropylmethyl)amino)-5-methyl-6-oxo-5,6-dihydro-1,5-naphthyridine-2-carbonitrile] | 250 | 29000 | 4800 | > 3000
Cc1ccc(N(CC2CC2)c2cc(=O)n(C)c3ccc(C#N)nc23)cc1 [Example 62, 8-((cyclopropylmethyl)(p-tolyl)amino)-5-methyl-6-oxo-5,6-dihydro-1,5-naphthyridine-2-carbonitrile] | 540 | 2900 | 3800 | 750
Cn1c(=O)cc(N(CC2CC2)c2ccc(C3CC3)c(-c3ccc(Cl)cc3)c2)c2nc(C#N)ccc21 [Example 128, 8-((4′-chloro-6-cyclopropyl-[1,1′-biphenyl]-3-yl)(cyclopropylmethyl)amino)-5-methyl-6-oxo-5,6-dihydro-1,5-naphthyridine-2-carbonitrile] | 130 | > 38000 | > 38000 | > 3000
Cn1c(=O)cc(N(CC2CC2)c2ccc3occc3c2)c2nc(C#N)ccc21 [Example 65, 8-(benzofuran-5-yl (cyclopropylmethyl)amino)-5-methyl-6-oxo-5,6-dihydro-1,5-naphthyridine-2-carbonitrile] | 570 | 2700 | 1900 | 1100
CN(C)c1ccc(N(CC2CC2)c2cc(=O)n(C)c3ccc(C#N)nc23)cc1 [Example 116, 8-((cyclopropylmethyl)(4-(dimethylamino)phenyl)amino)-5-methyl-6-oxo-5,6-dihydro-1,5-naphthyridine-2-carbonitrile] | 110 | 2400 | 8700 | > 3000
Cc1cc(N(CC2CC2)c2cc(=O)n(C)c3ccc(C#N)nc23)ccc1OC(F)F [Example 117, 8-((cyclopropylmethyl)(4-(difluoromethoxy)-3-methylphenyl)amino)-5-methyl-6-oxo-5,6-dihydro-1,5-naphthyridine-2-carbonitrile] | 160 | 4700 | 8800 | > 3000
